# Read-outs that look alike come from different tables or passages of the source.
# Key:
# [1] = system: epithelial carcinoma A431 cell line; experiment: MTT Cell Proliferation Assay, A431 cell line; assay type: cell-based; conditions: for MTT (10 Point follow-up) ratio / MTT-72 h A431/MDBK (ratio): value in brackets; for MTT (10 Point follow-up) ratio: numerically MDBK over A431; for MTT-72 h A431/MDBK (ratio): numerically MDBK value over A431 value
# Method in brief: (§1)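 Cells plated overnight, then exposed 3 days at 37 °C, 5% CO2 to compound in growth medium with 0.5% FBS and 0.5% DMSO final (0.5% DMSO as control).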
# [2] = biological target: T1, EGFR (Homo sapiens, UniProt P00533); experiment: EGFR in-cell Western (ICW) screening protocol; assay type: cell-based; parameters: unit not given here; conditions: for ICW Screen: initial screen
# T1 construct: endogenous in cells; host or cells: A431 cells (ATCC CRL-1555)
# Method in brief: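 Serum-starved cells treated with compound 4 h at 37 °C, then stimulated with EGF (20 or 0 ng/ml solution added) in its continued presence. In-cell Western on fixed cells: phospho-EGFR (800 channel) normalised to total EGFR (700 channel), % inhibition calculated against EGF-stimulated and unstimulated no-compound wells.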
# [3] = system: MDBK line; experiment: MTT Cell Proliferation Assay, MDBK line; assay type: cell-based, bovine; conditions: Bos taurus, MDBK
# Method in brief: as §1
# [4] = Homo sapiens, A-431, 10 point follow-up, first value of pair, read-out: MTT (10 Point follow-up) A431
# [5] = Homo sapiens, A-431, 72 h, 72 h, first value of A431/MDBK pair, read-out: MTT-72 h A431
# [6] = 10 point follow-up, second value of pair, read-out: MTT (10 Point follow-up) MDBK
# [7] = 72 h, second value of A431/MDBK pair, read-out: MTT-72 h MDBK
# [8] = 72 h, first value of A431/MDBK pair, read-out: MTT-72 h A431
# T1 sequence (P00533 25-1210): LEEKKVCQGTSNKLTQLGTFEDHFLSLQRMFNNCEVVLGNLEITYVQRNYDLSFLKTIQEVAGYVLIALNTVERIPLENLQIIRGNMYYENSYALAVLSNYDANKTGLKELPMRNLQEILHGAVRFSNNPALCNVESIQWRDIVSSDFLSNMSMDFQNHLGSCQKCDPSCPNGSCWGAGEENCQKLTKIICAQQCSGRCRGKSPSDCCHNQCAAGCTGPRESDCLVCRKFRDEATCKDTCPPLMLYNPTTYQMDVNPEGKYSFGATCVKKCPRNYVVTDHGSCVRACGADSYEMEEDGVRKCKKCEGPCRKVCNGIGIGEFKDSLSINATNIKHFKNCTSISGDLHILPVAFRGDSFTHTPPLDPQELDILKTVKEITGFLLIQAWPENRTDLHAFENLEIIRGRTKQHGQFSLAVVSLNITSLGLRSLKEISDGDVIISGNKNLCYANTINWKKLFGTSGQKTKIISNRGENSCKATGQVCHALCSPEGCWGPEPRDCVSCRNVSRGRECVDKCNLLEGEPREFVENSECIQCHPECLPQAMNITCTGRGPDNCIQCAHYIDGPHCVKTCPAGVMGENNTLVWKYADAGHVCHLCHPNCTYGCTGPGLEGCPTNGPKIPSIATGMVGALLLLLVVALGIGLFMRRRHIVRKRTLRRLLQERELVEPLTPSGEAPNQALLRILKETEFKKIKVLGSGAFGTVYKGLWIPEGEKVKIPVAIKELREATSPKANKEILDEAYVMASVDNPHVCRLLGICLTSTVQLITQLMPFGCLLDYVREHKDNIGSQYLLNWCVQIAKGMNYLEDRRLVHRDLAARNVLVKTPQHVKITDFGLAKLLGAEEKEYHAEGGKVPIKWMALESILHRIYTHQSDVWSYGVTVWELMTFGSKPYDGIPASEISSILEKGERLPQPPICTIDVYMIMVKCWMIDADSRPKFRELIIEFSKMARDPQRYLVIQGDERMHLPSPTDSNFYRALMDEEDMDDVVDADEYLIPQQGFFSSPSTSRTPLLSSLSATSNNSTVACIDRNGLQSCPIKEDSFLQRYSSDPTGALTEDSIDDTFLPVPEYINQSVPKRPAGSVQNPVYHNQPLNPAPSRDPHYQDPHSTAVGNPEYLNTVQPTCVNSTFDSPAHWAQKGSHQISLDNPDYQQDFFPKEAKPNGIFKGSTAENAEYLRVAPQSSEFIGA
Compound,MTT (10 Point follow-up) ratio [1],"MTT-72 h % Max ([1]; 72 h, maximal effect printed after the ratio) [%]",MTT-72 h A431/MDBK (ratio) ([1]; 72 h),"IC50 [1, 4] [µM]","IC50 [1, 5] [µM]",ICW Screen [2],ICW Re-Test [2],"IC50 [3, 6] [µM]","IC50 [3, 7] [µM]","IC50 [1, 8] [µM]"
COc1ccc(C(NC(=O)C2CCCCC2)c2cc([N+](=O)[O-])c3cccnc3c2O)cc1OC (centres unmarked) [compound 10940],1.77,57,1.21,0.336,13.6,38.28,72.45,0.594,16.6,–
Cc1cccc(NC(c2ccc(F)cc2)c2ccc3cccnc3c2O)n1 (centres unmarked) [compound 10056],–,–,0.96,–,5.38,34.16,44.46,–,5.18,–
C=CCOc1cccc(C(Nc2ccccn2)c2ccc3cccnc3c2O)c1 (centres unmarked) [compound 10050],–,–,0.97,–,5.39,32.11,–,–,5.35,–
Oc1c(C(Nc2ccccn2)c2ccsc2)ccc2cccnc12 (centres unmarked) [compound 10957],–,–,0.80,–,17.5,49.8,39.03,–,14.1,–
CC(C)Oc1ccc(C(Nc2ccccn2)c2ccc3cccnc3c2O)cc1 (centres unmarked) [compound 10068],–,–,0.91,–,5.72,29.92,–,–,5.19,–
COc1ccc(C(Nc2ccccn2)c2ccc3ccc(C)nc3c2O)cc1C (centres unmarked) [compound 1979],–,–,0.95,–,5.69,27.02,–,–,5.38,–
CCOc1ccc(NC(c2ccccn2)c2ccc3cccnc3c2O)cc1 (centres unmarked) [compound 11000],–,–,0.99,–,–,27.62,–,–,11.2,11.4
Cc1ccnc(NC(c2cc(C)ccc2O)c2ccc3cccnc3c2O)c1 (centres unmarked) [compound 10029],–,–,0.84,–,6.46,40.02,35.03,–,5.42,–
Cc1ccnc(NC(c2ccc3c(c2)OCO3)c2ccc3cccnc3c2O)c1 (centres unmarked) [compound 10038],–,–,0.94,–,5.75,28.31,–,–,5.42,–
CON1CCN(C(c2cccnc2)c2ccc3cccnc3c2O)CC1 (centres unmarked) [compound 10551],–,–,0.57,–,20.1,29.14,–,–,11.4,–
C=CCOc1ccc(C(Nc2ccccn2)c2ccc3cccnc3c2O)cc1 (centres unmarked) [compound 10052],0.67,–,–,13.8,2.35,43.1,20.95,9.25,–,–
COc1ccc(C(Nc2cc(C)ccn2)c2ccc3cccnc3c2O)cc1OC (centres unmarked) [compound 1969],–,–,0.90,–,15,29.61,39.58,–,13.6,–
Oc1c(C(Nc2ccccn2)c2ccc(Br)cc2)ccc2cccnc12 (centres unmarked) [compound 10048],0.96,–,–,5.46,–,44.94,15.3,5.23,–,–
Cc1ccnc(NC(c2ccc3cccnc3c2O)c2c(O)cccc2Cl)c1 (centres unmarked) [compound 10067],2.14,–,1.60,1.38,2.15,12.5,–,2.95,3.45,–
Cc1cccc(NC(c2cccnc2)c2ccc3cccnc3c2O)n1 (centres unmarked) [compound 10975],–,–,0.68,–,52.2,53.5,34.86,–,35.6,–
C=CCOc1cccc(C(Nc2cc(C)ccn2)c2ccc3cccnc3c2O)c1 (centres unmarked) [compound 10144],–,–,0.93,–,5.67,39.73,21.02,–,5.29,–
COc1cc(C(Nc2ccccn2)c2cc(Cl)c3cccnc3c2O)cc(I)c1O (centres unmarked) [compound 10086],–,–,0.77,–,5.96,53.89,25.94,–,4.61,–
Cc1ccc(NC(c2ccccc2O)c2ccc3cccnc3c2O)nc1 (centres unmarked) [compound 10430],–,–,0.86,–,6.47,43.81,48.57,–,5.58,–
O=C(O)c1ccc(C(Nc2ccccn2)c2cc(Cl)c3cccnc3c2O)cc1 (centres unmarked) [compound 10093],–,–,0.68,–,31.4,25.13,–,–,21.5,–
CCOc1ccc(C(Nc2ccccn2)c2ccc3cccnc3c2O)cc1O (centres unmarked) [compound 10013],1.79,–,1.80,3.53,3.56,61.2,62.77,6.32,6.42,–
CCOc1ccc(C(Nc2ccccn2)c2cc(Cl)c3cccnc3c2O)cc1 (centres unmarked) [compound 10953],–,–,1.03,–,5.42,30.86,41.04,–,5.56,–
Cc1ccnc(NC(c2ccc(C(F)(F)F)cc2)c2ccc3cccnc3c2O)c1 (centres unmarked) [compound 10486],3.07,–,2.76,0.275,0.29,25.02,–,0.844,0.8,–
CCOc1cc(C(NC(C)=O)c2cc([N+](=O)[O-])c3cccnc3c2O)ccc1O (centres unmarked) [compound 10951],–,–,0.97,–,5.58,38.95,31.33,–,5.44,–
Cc1ccc2ccc(C(Nc3ccccn3)c3cccnc3)c(O)c2n1 (centres unmarked) [compound 10967],–,–,0.67,–,46,25.98,15.92,–,31,–
Cc1ccnc(NC(c2ccncc2)c2ccc3cccnc3c2O)c1 (centres unmarked) [compound 10968],–,–,0.71,–,11.1,27,–,–,7.84,–
Oc1ccc(Br)c(C(Nc2ccccn2)c2ccc3cccnc3c2O)c1 (centres unmarked) [compound 10064],1.29,–,–,1.56,–,9.336,–,2.01,–,–
Cc1cccc(NC(c2ccc3c(c2)OCO3)c2ccc3cccnc3c2O)n1 (centres unmarked) [compound 10487],0.72,–,0.96,1.33,–,33.14,–,0.963,5.28,5.51
CCN(CC)c1ccc(C(Nc2ccccn2)c2ccc3cccnc3c2O)cc1 (centres unmarked) [compound 10965],–,–,1.00,–,3.83,74.54,92.26,–,3.83,–
Oc1c(C(Nc2ccccn2)c2ccccc2Br)cc(Cl)c2cccnc12 (centres unmarked) [compound 10074],1.16,–,–,1.38,–,6.951,–,1.6,–,–

# From US9073858B2, “Methods of targeted drug development” (priority 2010, dated 2015)
